{"source": "patent US20210030908A1", "about": "(priority 2013, published 2021)", "key": {"[1]": {"test_system": "Bacillus atrophaeus spore strip", "format": "cell-based", "conditions": "for Sterilization (6-log reduction of Bacillus atrophaeus), Exposure Time 5 Minutes (CT = 250): 3,000 ppmv ClO2 in air, 700 feet/sec, nozzle 2.54 cm from target, CT in ppmv-hrs, per sample replicate"}, "anthrax spores": {"test_system": "anthrax spores", "conditions": "gas or vapor phase application, prior art; cited from earlier work"}, "mold spores": {"test_system": "mold spores", "conditions": "time averaged concentration about 500 to 1500 ppmv over a 12 hour period, prior art; cited from earlier work"}}, "note": "Like-named read-outs stand apart in the source and are kept apart here."}
{"smiles": "[O][Cl+][O-]", "note": "[chlorine dioxide]", "values": [{"measurement": "Sterilization (6-log reduction of Bacillus atrophaeus), Exposure Time 5 Minutes (CT = 250)", "setting": "[1]; Group 1 spore strips, pre-humidified for one hour at about 75 degrees F.", "value": "− (“−” indicates at least a 6-log reduction of Bacillus atrophaeus)"}, {"measurement": "Sterilization (6-log reduction of Bacillus atrophaeus), Exposure Time 5 Minutes (CT = 250)", "setting": "[1]; Group 2 spore strips, no pre-humidification prior to test", "value": "− (“−” indicates at least a 6-log reduction of Bacillus atrophaeus)"}, {"measurement": "Oxidation of the target", "setting": "[1]; every test (all exposure times, with and without pre-humidification)", "value": "every test resulted in oxidation of the target"}, {"measurement": "Sterilization outcome", "setting": "[1]; no pre-humidification, exposure times of 30 seconds, 1 minute, and 2 minutes, at CT's of 25, 50, and 100", "value": "some sterilization"}, {"measurement": "Sterilization outcome", "setting": "[1]; no pre-humidification, exposure times of at least 5 minutes at a CT of 250", "value": "successful sterilization of all targets"}, {"measurement": "Applications resulting in successful sterilization", "setting": "[1]; pre-humidified application zones, 30 seconds at a CT of 25", "value": 75, "unit": "%"}, {"measurement": "Sterilization outcome", "setting": "[1]; pre-humidified application zones, exposure times greater than or equal to 1 minute, CT greater than or equal to 50", "value": "successful sterilization of the targets for all applications"}, {"measurement": "CT found effective for sterilizing anthrax spores", "setting": "anthrax spores", "value": 9000, "unit": "ppmv-hrs"}, {"measurement": "CT found effective for killing mold spores and eliminating allergenic effects", "setting": "mold spores", "value": "6000-18000 ppmv-hrs"}]}
